What is called Kd is a measure of binding affinity in units of concentration.

The structures appear in SMILES notation. Entries after “also recorded” stand apart in the source; their conditions may differ. Some results are limits rather than exact numbers.

One series deals with NTS1R (Homo sapiens, UniProt P30989). As to the kind of experiment: High-content imaging (HCI) saturation binding, adherent CHO-hNTS1R cells. The settings on record: 23 °C. The method, then:
CHO-hNTS1R or HT-29 cells were seeded one day prior to the experiment into the inner 60 wells of a black clear-bottom 96-well plate (Greiner 655090, Greiner Bio-One) at a concentration of 25,000 cells/well and 35,000 cells/well, respectively. On the day of the assay, the medium was removed by suction and the cells were washed with DPBS1 (50 μL). After this step, DPBS1 (180 or 200 μL) containing the nuclear dye Hoechst H33342 (2 μg/mL) was added. This solution also contained the fluorescent ligand (kinetic studies, competition binding experiments), or the fluorescent ligand was added separately (saturation binding experiments). […] Shortly before subjecting the plate to the plate reader for image acquisition, the liquid was removed by suction and DPBS1 (100 μL) was added. Images were acquired using an IX Micro plate reader (Molecular Devices, Sunnyvale, CA) using a 20× Plan Fluor ELWD objective, a xenon lamp light source and DAPI and TRITC excitation/emission filter cubes for imaging nuclear and fluorescent ligand staining, respectively. […] Two sites/well were measured throughout. Images were analyzed by granularity analysis (2–3 μm diameter granules; MetaXpress 5.3, Molecular Devices, San Diego, CA) and the integrated intensity (pixel intensity × granule area) per cell was used as the raw measurement of fluorescent ligand binding. […]

The nature of series [1]: Chemical stability in PBS (pH 7.4). In kind it is physicochemical. The settings on record: PBS pH 7.4, room temperature, up to 48 h, RP-HPLC. The method, then: The chemical stability of peptides 13 and 18 was investigated in PBS (adjusted to pH 7.4) at 22 °C in the dark. The incubation was started by the addition of 15 μL of a 1 mM stock solution (solvent: DMSO) to 135 μL of PBS to yield a concentration of 100 μM. After periods of 0, 6, 24, and 48 h, an aliquot (25 μL) was removed and added to 25 μL of acetonitrile/0.04% aqueous TFA 1:9 v/v to obtain a peptide solution with a concentration of 50 μM. 20 μL of this solution were subjected to analytical RP-HPLC analysis using the same system and conditions as described under Analytical HPLC with the following gradient: 0–14 min: acetonitrile/0.04% aqueous TFA 10:90–30:70, 14–15 min: 30:70–95:5, 15–20 min: 95:5 (isocratic). A 1:1 mixture of PBS and acetonitrile/0.04% aqueous TFA 1:9 v/v (20 μL) was analyzed to obtain the blank chromatogram.

Series [2] can be described thus: Stability in human plasma/PBS 1:2 v/v. In kind it is in vitro ADME. To be noted: for % intact compound in plasma: 37 °C; for % intact compound in plasma / remaining at 24 h, 80 μM: 24 h. On the procedure: The proteolytic stabilities of 13 and 18 were investigated in human blood plasma/PBS (136.9 mM NaCl, 2.68 mM KCl, 5.62 mM Na2HPO4, 1.09 mM NaH2PO4, and 1.47 mM KH2PO4, pH 7.4) 1:2 v/v according to a described procedure[38] with the following modifications: 5 mM stock solutions in EtOH/10 mM aqueous HCl 1:1 v/v were used for the addition of the peptides to plasma/PBS 1:2 v/v. As the RP-HPLC purity of 1-methyl-D-Trp, used as internal standard (IS), was <95%, the compound was purified by preparative HPLC to give a purity of >99%. The concentration of the peptides in plasma/PBS 1:2 v/v was 40 μM (recovery determination) or 80 μM (stability tests). Samples were analyzed using the same RP-HPLC system and conditions as described under Analytical HPLC with the following gradient: 0–6 min: acetonitrile/0.04% aqueous TFA 10:90–21:79, 6–12 min: 21:79–40:60, 12–13 min: 40:60–95:5, 13–16 min: 95:5 (isocratic). Data analysis was based on UV detection at 220 nm. Reference samples, representing 100% recovery, were prepared in quadruplicate. Recovery ratios were obtained by dividing the recovery of the peptide by the recovery of IS for each individual sample (n = 4). The obtained recoveries and the recovery ratios are summarized in Table S2, Supporting Information.

Setting [3] is: human blood plasma/PBS 1:2 v/v, pH 7.4, 37 °C, read-out: % intact compound in plasma.

Chain of NTS1R (P30989 whole entry): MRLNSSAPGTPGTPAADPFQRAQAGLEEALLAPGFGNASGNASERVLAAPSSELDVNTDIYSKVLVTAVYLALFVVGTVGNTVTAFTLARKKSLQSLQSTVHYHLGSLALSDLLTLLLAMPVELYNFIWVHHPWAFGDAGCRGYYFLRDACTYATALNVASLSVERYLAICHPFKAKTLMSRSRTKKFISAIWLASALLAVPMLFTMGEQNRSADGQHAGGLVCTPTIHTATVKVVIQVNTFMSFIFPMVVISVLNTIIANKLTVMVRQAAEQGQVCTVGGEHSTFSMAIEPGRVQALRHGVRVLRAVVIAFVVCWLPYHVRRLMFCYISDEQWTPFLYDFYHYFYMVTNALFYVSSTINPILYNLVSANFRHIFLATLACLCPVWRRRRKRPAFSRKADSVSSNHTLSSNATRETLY

On to `CCC(=O)NCCCCNC(=O)N=C(N)NCCC[C@H](NC(=O)[C@@H]1CCCN1C(=O)[C@@H](NC(=O)CCc1cn(CCCNC(=O)c2ccc(-c3c4ccc(=[N+](C)C)cc-4oc4cc(N(C)C)ccc34)c(C(=O)[O-])c2)nn1)C1CCNCC1)C(=O)N[C@@H](CCCNC(=N)N)C(=O)N1CCC[C@H]1C(=O)N[C@@H](Cc1ccc(O)cc1)C(=O)N[C@H](C(=O)N[C@@H](CC(C)C)C(=O)O)[C@@H](C)CC` [Compound 13, N^α-(3-(1-N-((1-Carboxylato-2-(6-(dimethylamino)-3-(dimethyliminio)-3H-xanthen-9-yl)phen-5-yl)1-oxomethyl)aminoprop-3-yl-1H-1,2,3-triazol-4-yl)propanoyl)-2-(piperidin-4-yl)-Gly-Pro-N^ω-[(4-(N-propanoyl)aminobutyl)aminocarbonyl]Arg-Arg-Pro-Tyr-Ile-Leu Tris(hydrotrifluoroacetate)], for which the Kd on NTS1R came out at 1.1 ± 0.2 nM. In series [1], the “chemical stability in PBS” value is “high stability; also recorded: very slow degradation observable after 24 h”. Moreover, in series [2], the “% intact compound in plasma” value was greater than 50%. Moreover, in series [2] (human blood plasma/PBS 1:2 v/v, pH 7.4, 37 °C, 30 min, read-out: % intact compound in plasma), the remaining at 0.5 h, 80 μM is greater than 99%. In addition, in series [2] (setting [3]), the remaining at 2 h, 80 μM was greater than 99%; the remaining at 6 h, 80 μM was greater than 99%; the remaining at 24 h, 80 μM came out at 86 ± 4%; the remaining at 48 h, 80 μM is 58 ± 5%.
In turn, `CCC(=O)NCCCCNC(=O)NC(=N)NCCC[C@H](NC(=O)[C@@H]1CCCN1C(=O)[C@@H](NC(=O)CCc1cn(CCCNC(=O)CCC#Cc2ccc3c(c2)C(C)(C)C2=C4C=C5C6=[N+](CCC5OC4CCN23)c2ccc(S(=O)(=O)[O-])cc2C6(C)C)nn1)C1CCNCC1)C(=O)N[C@@H](CCCNC(=N)N)C(=O)N1CCC[C@H]1C(=O)N[C@H](C(=O)N[C@H](C(=O)N[C@@H](CC(C)C)C(=O)O)[C@@H](C)CC)C(C)(C)c1ccc(O)cc1` (stereo partly drawn) [Compound 18, N^α-(3-(N-(1-(8-Sulfonato-5,5,27,27-tetramethyl-16-oxa-20-aza-12-azoniaheptacyclo[15.11.0.03,15.04,12.06,11.020,28.021,26]octacosa-1(28),2,4(12),6(11),7,9,21(26),22,24-nonaen-24-yl)-5-oxopentyn-5-yl)-1-aminoprop-3-yl-1H-1,2,3-triazol-4-yl)propanoyl)-2-(piperidin-4-yl)-Gly-Pro-N^ω-[(4-(N-propanoyl)aminobutyl)aminocarbonyl]Arg-Arg-Pro-β,β-dimethyl-L-Tyr-Ile-Leu Tris(hydrotrifluoroacetate)] gave a Kd at NTS1R of 1.3 ± 0.3 nM. In addition, the “chemical stability in PBS” value in series [1] is recorded as “highly stable over 48 h; also recorded: no decomposition”. Further, in series [2], the “% intact compound in plasma” value is on record as greater than 50%. Besides, in series [2] (setting [3]), the remaining at 2 h, 80 μM stood at 95 ± 6%; the remaining at 6 h, 80 μM was determined as 90 ± 6%; the remaining at 24 h, 80 μM came to 82 ± 4%; the remaining at 48 h, 80 μM was found to be 52 ± 4%.

The record behind these values is PMC11440508, “Dually Labeled Neurotensin NTS1R Ligands for Probing Radiochemical and Fluorescence-Based Binding Assays” (Journal of Medicinal Chemistry, 2024).
